The target in assay [1] is T1, human muscle glycogen phosphorylase a (HMGPa) (Homo sapiens, UniProt P11217).
T1 construct: made in house; host or cells: E. coli strain XL-1 Blue (plasmid pKK233-2)
T1 sequence (P11217 2-842 limits assumed): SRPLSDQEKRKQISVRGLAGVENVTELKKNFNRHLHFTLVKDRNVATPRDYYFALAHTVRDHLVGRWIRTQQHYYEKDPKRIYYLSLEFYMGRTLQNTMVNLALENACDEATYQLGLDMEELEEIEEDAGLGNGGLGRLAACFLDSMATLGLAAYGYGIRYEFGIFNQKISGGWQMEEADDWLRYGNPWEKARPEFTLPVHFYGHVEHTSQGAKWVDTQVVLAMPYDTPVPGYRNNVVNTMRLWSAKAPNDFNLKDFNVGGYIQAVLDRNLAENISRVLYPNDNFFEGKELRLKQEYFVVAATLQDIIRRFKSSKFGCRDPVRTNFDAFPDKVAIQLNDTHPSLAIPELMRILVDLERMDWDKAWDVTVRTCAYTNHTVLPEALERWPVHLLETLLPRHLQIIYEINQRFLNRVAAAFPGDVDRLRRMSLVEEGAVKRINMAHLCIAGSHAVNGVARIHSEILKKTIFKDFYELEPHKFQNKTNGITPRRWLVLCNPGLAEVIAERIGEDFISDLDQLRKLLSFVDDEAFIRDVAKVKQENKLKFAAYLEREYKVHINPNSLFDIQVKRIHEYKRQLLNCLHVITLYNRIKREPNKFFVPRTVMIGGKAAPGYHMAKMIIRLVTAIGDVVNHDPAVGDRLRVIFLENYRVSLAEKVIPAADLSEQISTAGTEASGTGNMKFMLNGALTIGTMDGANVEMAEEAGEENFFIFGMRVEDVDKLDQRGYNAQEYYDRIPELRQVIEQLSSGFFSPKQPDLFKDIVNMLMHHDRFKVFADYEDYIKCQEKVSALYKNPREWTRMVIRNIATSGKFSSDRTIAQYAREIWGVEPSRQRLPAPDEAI
The experiment in a line: GPa activity assay, reverse direction (inorganic phosphate release from glucose-1-phosphate), human muscle isoform. In kind it is biochemical. Here is the method:
(§1) All reactions are run in triplicate in 96-well microtiter plates and the change in absorbance due to formation of the reaction product is measured at the wavelength specified below in a MCC/340 MKII Elisa Reader (Lab Systems, Finland), connected to a Titertech Microplate Stacker (ICN Biomedical Co, Huntsville, Ala.).
(§2) Buffer B is at pH 7.2 and contains 50 mM HEPES, 100 mM KCl, 2.5 mM EGTA, 2.5 mM MgCl2 and 0.5 mM dithiothreitol. […] After a 20 minute incubation at room temperature, the absorbance is measured at 620 nm.

In assay [2] the target is T2, human liver glycogen phosphorylase a (HLGPa) (Homo sapiens, UniProt P06737).
T2 construct: made in house; host or cells: E. coli XL-1 Blue (pKK233-2) or Sf9 insect cells (pBlueBac III baculovirus)
T2 sequence (P06737 2-847 limits assumed): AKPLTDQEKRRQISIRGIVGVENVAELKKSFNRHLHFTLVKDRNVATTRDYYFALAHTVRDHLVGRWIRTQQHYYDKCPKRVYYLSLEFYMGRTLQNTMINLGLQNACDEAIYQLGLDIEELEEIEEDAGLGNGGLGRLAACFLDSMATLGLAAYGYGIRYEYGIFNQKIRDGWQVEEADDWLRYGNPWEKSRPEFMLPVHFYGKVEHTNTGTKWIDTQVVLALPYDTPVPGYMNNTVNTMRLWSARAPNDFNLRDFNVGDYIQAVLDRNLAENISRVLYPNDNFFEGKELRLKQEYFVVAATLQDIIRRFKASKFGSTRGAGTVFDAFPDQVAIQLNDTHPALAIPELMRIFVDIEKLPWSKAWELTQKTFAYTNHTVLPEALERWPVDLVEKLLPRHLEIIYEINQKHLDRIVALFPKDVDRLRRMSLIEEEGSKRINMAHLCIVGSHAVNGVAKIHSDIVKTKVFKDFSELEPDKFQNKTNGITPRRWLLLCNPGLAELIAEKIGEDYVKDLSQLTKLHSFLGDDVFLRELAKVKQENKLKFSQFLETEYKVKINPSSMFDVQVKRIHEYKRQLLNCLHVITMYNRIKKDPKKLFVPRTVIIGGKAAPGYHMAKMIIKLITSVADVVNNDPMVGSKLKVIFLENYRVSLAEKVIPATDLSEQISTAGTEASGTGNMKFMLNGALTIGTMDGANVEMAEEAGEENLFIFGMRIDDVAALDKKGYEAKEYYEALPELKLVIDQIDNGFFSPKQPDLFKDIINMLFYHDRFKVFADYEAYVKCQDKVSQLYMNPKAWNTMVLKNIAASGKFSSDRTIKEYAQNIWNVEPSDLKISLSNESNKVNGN
Put plainly: GPa activity assay, reverse direction (inorganic phosphate release from glucose-1-phosphate), human liver isoform. In kind it is biochemical. As to the method:
as §1, §2

Assay [3] deals with rabbit isolated heart. To be noted: Liu et al., Cardiovasc. Res., 28:1057-1061, 1994; cited from earlier work.
For assay [4], the system named is rabbit isolated heart. Put plainly: Cardioprotection (reduction of infarcted myocardium) in isolated, retrogradely perfused (Langendorff) rabbit heart after regional ischemia and reperfusion. Details: species or system Male New Zealand White rabbits. Particulars: for Infarct Area/Area-at-Risk (%IA/AAR): standard error in own column, control 63.9. An excerpt:
Cardioprotection, as indicated by a reduction in infarcted myocardium, can be induced pharmacologically using adenosine receptor agonists in isolated, retrogradely perfused rabbit hearts as an in vitro model of myocardial ischemic preconditioning (Liu et al., Cardiovasc. Res., 28:1057-1061, 1994). […] The exact methodology is described below.
The protocol used for these experiments closely follows that described by Liu et al., Cardiovasc. Res., 28:1057-1061, 1994. Male New Zealand White rabbits (3-4 kg) are anesthetized with sodium pentobarbital (30 mg/kg, i.v.). After deep anesthesia is achieved (determined by the absence of an ocular blink reflex) the animal is intubated and ventilated with 100% O2 using a positive pressure ventilator. A left thoracotomy is performed, the heart exposed, and a snare (2-0 silk) is placed loosely around a branch of the left anterior descending coronary artery, approximately 2/3 of the distance towards the apex of the heart. The heart is removed from the chest and rapidly (<30 sec) mounted on a Langendorff apparatus. The heart is retrogradely perfused via the aorta in a non-recirculating manner with a modified Krebs solution (NaCl 118.5 mM, KCl 4.7 mM, Mg SO4 1.2 mM, KH2 PO4 1.2 mM, NaHCO3 24.8 mM, CaCl2 2.5 mM, and glucose 10 mM), at a constant pressure of 80 mmHg and a temperature of 37° C. […] Heart rate and left ventricular pressures are determined via a latex balloon which is inserted in the left ventricle and connected by stainless steel tubing to a pressure transducer. […] Perfusate flow rates are routinely determined throughout the experimental period. […]
At the end of the 120 min reperfusion period, the coronary artery snare is tightened, and a 0.5% suspension of fluorescent zinc cadmium sulfate particles ([…]) is perfused through the heart; this stains all of the myocardium, except that area at risk for infarct development (area-at-risk). […] The infarcted area (no stain) and the area-at-risk (no fluorescent particles) are calculated for each slice of left ventricle using a precalibrated image analyzer. […]

[5] abbreviates: reverse direction assay, HLGPa, read-out: HLGPa IC50.

SMILES strings stand for the structures. Read-outs that look alike come from different tables or passages of the source.

Consider `CN(C)C(=O)[C@H](O)[C@H](Cc1ccccc1)NC(=O)c1cc2cc(Cl)ccc2[nH]1` [5-Chloro-1H-indole-2-carboxylic acid [(1S)-((R)-hydroxy-dimethylcarbamoyl-methyl)-2-phenyl-ethyl]-amide], for which the results for the IC50 in assay [1] and in assay [2] were 155 nM and 108 nM, respectively.
With `Nc1ccc(CCNc2ncnc3c2ncn3[C@@H]2O[C@H](CO)[C@@H](O)[C@H]2O)cc1` [APNEA, N^6-[2-(4-aminophenyl)ethyl]adenosine, reference compound], the “pharmacologically induced cardioprotection in the rabbit isolated heart” value with rabbit isolated heart [3] was “shown to pharmacologically induce cardioprotection”. Besides, the “Infarct Area/Area-at-Risk (%IA/AAR)” value with rabbit isolated heart [4] (500 nM, perfused 5 min, then 10 min drug-free, before 30 min ischemia and 120 min reperfusion, n=9) was 19.0%.
For `O=C(N[C@@H](Cc1ccccc1)C(=O)N1CC(O)C1)c1cc2cc(Cl)ccc2[nH]1` [5-chloro-1H-indole-2-carboxylic acid [(1S)-benzyl-2-(3-hydroxy-azetidin-1-yl)-2-oxo-ethyl]-amide], in the assay on rabbit isolated heart [4] (5 μM), the “cardioprotection relative to the control group” value is given as “significant cardioprotection”. Moreover, in the assay with rabbit isolated heart [4] (5 μM, perfused from 30 min before 30 min regional ischemia through 120 min reperfusion, n=6), the “Infarct Area/Area-at-Risk (%IA/AAR)” value worked out at 31.4%.
For `CON(C)C(=O)[C@H](O)[C@H](Cc1ccccc1)NC(=O)c1cc2cc(Cl)ccc2[nH]1` [5-Chloro-1H-indole-2-carboxylic acid {(1S)-[(R)-hydroxy-(methoxy-methylcarbamoyl)-methyl]-2-phenyl-ethyl}-amide], the figures for the IC50 in assay [1] and in assay [2] (setting [5]) were 110 nM and 51 nM, respectively.
For the compound `CN(CCO)C(=O)[C@H](O)[C@H](Cc1ccccc1)NC(=O)c1cc2cc(Cl)ccc2[nH]1` [5-Chloro-1H-indole-2-carboxylic acid ((1S)-{(R)-hydroxy-[(2-hydroxy-ethyl)methyl-carbamoyl]-methyl}-2-phenyl-ethyl)-amide], the half-inhibitory concentration (IC50) in assay [1] worked out at 20 nM; in assay [2] (setting [5]), 152 nM.

One may read the IC50 as the concentration that gives 50% inhibition.

The values above are taken from patent US5952322A, “Method of reducing tissue damage associated with non-cardiac ischemia using glycogen phosphorylase inhibitors” (Pfizer Inc., priority 1997, dated 1999).
